Test results published in PMC8150775, “Repositioning Azelnidipine as a Dual Inhibitor Targeting CD47/SIRPα and TIGIT/PVR Pathways for Cancer Immuno-Therapy” (Biomolecules, 2021).

What was measured:
TIGIT/PVR interaction = target: T1, TIGIT/PVR interaction (Homo sapiens, UniProt P15151); test: Blocking assay by flow cytometry, preliminary screening at a single concentration, TIGIT/PVR; type: binding; conditions: preliminary test, single concentration of 100 μM
T1 construct: purchased ACRO Biosystem CD5-H82F6; host or cells: CHOK1-TIGIT cells (lenti-viral transfection)
T1 sequence (P15151 21-343 limits assumed): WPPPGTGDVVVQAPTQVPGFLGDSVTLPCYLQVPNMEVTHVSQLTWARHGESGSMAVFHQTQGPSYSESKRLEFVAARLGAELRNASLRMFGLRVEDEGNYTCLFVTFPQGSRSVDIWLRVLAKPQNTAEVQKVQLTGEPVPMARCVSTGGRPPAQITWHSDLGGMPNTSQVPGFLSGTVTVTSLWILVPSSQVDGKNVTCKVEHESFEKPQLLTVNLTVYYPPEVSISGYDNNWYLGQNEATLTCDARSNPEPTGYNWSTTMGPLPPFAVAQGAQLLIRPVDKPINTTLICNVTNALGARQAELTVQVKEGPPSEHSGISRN
Method: (§1) The abilities of small molecule inhibitors (SMIs) (purchased from TargetMol, Shanghai, China) to block the binding of SIRPα protein to CHOK1-CD47 cells or PVR protein to CHOK1-TIGIT cells were determined by flow cytometry, as previously reported. The SMIs at indicated concentrations were incubated with Fc-tagged SIRPα or PVR protein for 30 min at 4°C, followed by incubating with the indicated cells for another 30 min. Human SIRPα protein (SIA-H5251, ACRO Biosystem, Beijing, China), mouse SIRPα protein (SIA-M5258, ACRO Biosystem, Beijing, China), human PVR protein (CD5-H82F6, ACRO Biosystem, Beijing, China), and mouse PVR protein (50259-M03H, Sino Biological, Beijing, China) were used. PE-conjugated anti-human IgG antibody was used to detect the Fc protein bind to cells. Cells incubated with the Fc proteins and anti-human IgG antibody without the SMIs serve as the positive control. The mean fluorescent intensity (MFI) of each sample was detected and recorded by a flow cytometry. The blocking efficacy of the SMIs was calculated as the equation: (MFI of the positive control-MFI of the SMI)/MFI of the positive control × 100%.
(§2) The small molecule inhibitor could not only bind to the target; most importantly, it should interfere with the receptor–ligand interactions. Subsequently, the candidate inhibitors were screened by the blocking assays with the established CD47 and TIGIT over-expressing cell lines. The test was initialed with a preliminary screening of the candidates with a single concentration (Figure 2D). Generally, the SMI blocking efficacy to the CD47/SIRPα interaction was much higher than that of the TIGIT/PVR. […] Therefore, the SMI-F11 and SMI-F17 may exert dual blocking effects in the CD47/SIRPα and TIGIT/PVR pathways. Blocking assays with a concentration gradient of the SMI were further performed to validate the preliminary screening. […] The similar blocking assays with the mouse CD47 and TIGIT over-expressing cells were also performed. […] Considering that most pairs of the immune checkpoints interact with the corresponding ligand in parallel forms, the blocking assays with the PD-1/PD-L1 interaction system was also conducted to test the specificity.

CD47/SIRPα interaction = target: T2, CD47/SIRPα interaction (Homo sapiens, UniProt P78324); test: Blocking assay by flow cytometry, preliminary screening at a single concentration, CD47/SIRPα; type: binding; conditions: preliminary test, single concentration of 100 μM
T2 construct: purchased ACRO Biosystem SIA-H5251; host or cells: CHOK1-CD47 cells (lenti-viral transfection)
T2 sequence (P78324 31-370 limits assumed): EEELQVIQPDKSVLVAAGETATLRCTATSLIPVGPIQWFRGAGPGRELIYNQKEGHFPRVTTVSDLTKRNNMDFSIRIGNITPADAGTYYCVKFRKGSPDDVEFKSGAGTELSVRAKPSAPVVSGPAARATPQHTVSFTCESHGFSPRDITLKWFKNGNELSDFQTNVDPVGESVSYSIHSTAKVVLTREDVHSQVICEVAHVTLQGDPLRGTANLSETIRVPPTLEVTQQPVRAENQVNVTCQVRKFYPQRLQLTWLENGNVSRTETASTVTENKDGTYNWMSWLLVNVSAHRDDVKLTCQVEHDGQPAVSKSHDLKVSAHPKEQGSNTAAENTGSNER
Method: as §1, §2

human CD47/SIRPα = target: T3, human CD47/SIRPα (Homo sapiens, UniProt P78324); test: Blocking assay, human SIRPα protein binding to CHOK1-hCD47 cells; conditions: concentration gradient
T3 construct: purchased ACRO Biosystem SIA-H5251; host or cells: soluble protein purchased; CD47 on CHOK1-hCD47 cells (lenti-viral transfection)
T3 sequence (P78324 31-370 limits assumed): as above
Method: as §1

human TIGIT/PVR = target: T4, human TIGIT/PVR (Homo sapiens, UniProt P15151); test: Blocking assay, human PVR protein binding to CHOK1-hTIGIT cells; conditions: concentration gradient
T4 construct: purchased ACRO Biosystem CD5-H82F6; host or cells: soluble protein purchased; TIGIT on CHOK1-hTIGIT cells (lenti-viral transfection)
Method: as §1

SMILES	blocking efficacy, CD47/SIRPα interaction (CD47/SIRPα interaction)	activity in interfering with the TIGIT/PVR interaction (TIGIT/PVR interaction)	concentration-dependent blocking effect, CD47/SIRPα (human CD47/SIRPα)	concentration-dependent blocking effect, TIGIT/PVR (human TIGIT/PVR)
COc1cccc(N(C)C(=S)Oc2ccc3c(c2)CCCC3)n1 [SMI-F20, Liranaftate]		better activities		
CCCSc1ccc2nc(NC(=O)OC)[nH]c2c1 [SMI-F16, Albendazole]		better activities		

Further lines, with some results ahead:

blocking efficacy, CD47/SIRPα interaction (CD47/SIRPα interaction)	SMILES	activity in interfering with the TIGIT/PVR interaction (TIGIT/PVR interaction)	concentration-dependent blocking effect, CD47/SIRPα (human CD47/SIRPα)	concentration-dependent blocking effect, TIGIT/PVR (human TIGIT/PVR)
more than 50%	O=C1[C@H](CC[C@H](O)c2ccc(F)cc2)[C@@H](c2ccc(O)cc2)N1c1ccc(F)cc1 [SMI-F17, Ezetimibe]	better activities	could not exert blocking effects in a concentration-dependent manner	could not exert blocking effects in a concentration-dependent manner
more than 50%	Nc1cccc2c1CN(C1CCC(=O)NC1=O)C2=O (centres unmarked) [SMI-F19, Lenalidomide]			
more than 50%	Cc1cc(O)c(C(=O)N[C@@H](C(=O)N[C@@H]2C(=O)N3C(C(=O)O)=C(CSc4nnnn4C)CS[C@H]23)c2ccc(O)cc2)cn1 [SMI-F12, Cefpiramide acid]			
